The subject of data set [1] is Candida albicans NCYC 10231. In words: Minimum Inhibitory Concentration (MIC) against Candida albicans. Particulars: Fungi. It counts as cell-based. As for the experimental part: (§1) The Minimum Inhibitory Concentration (MIC) against a range of fungi and bacteria were determined for each of the antimicrobial copolymers prepared in Examples 1 to 4 and Comparative Example A. The MIC results are shown in Table 3: […]

The test system of data set [2] is a range of fungi and bacteria. In words: MIC against a range of fungi and bacteria, overall statement. It is filed as cell-based. The conditions noted are these: summary of Table 3; compared to Comparative Example A or to the copolymers. As for the experimental part: as §1
For data set [3], the system named is Bacillus subtilis NCIB 1650. In words: Minimum Inhibitory Concentration (MIC) against Bacillus subtilis. It is filed as cell-based. Particulars: Bacteria. As for the experimental part: as §1
For data set [4], the system named is Klebsiella pneumoniae ATCC 4352. In words: Minimum Inhibitory Concentration (MIC) against Klebsiella pneumoniae. It is filed as cell-based. Particulars: Bacteria. As for the experimental part:
as §1

Data set [5] concerns Pseudomonas fluorescens (with Lux AB gene) our ref D481. The data set is described as follows: Minimum Inhibitory Concentration (MIC) against Pseudomonas fluorescens. It counts as cell-based. Particulars: Bacteria. Here is the method:
as §1

Data set [6] relates to Escherichia coli NCIB 9132. In words: Minimum Inhibitory Concentration (MIC) against Escherichia coli. It is filed as cell-based. The conditions noted are these: Bacteria. Here is the method: as §1
The test system of data set [7] is Pseudomonas aeruginosa NCIB 10421. The data set is described as follows: Minimum Inhibitory Concentration (MIC) against Pseudomonas aeruginosa. It is filed as cell-based. The conditions noted are these: Bacteria. As for the experimental part: as §1
The subject of data set [8] is Staphylococcus aureus NCIB 9518. In words: Minimum Inhibitory Concentration (MIC) against Staphylococcus aureus. Particulars: Bacteria. It counts as cell-based. As for the experimental part: as §1
Data set [9] relates to Penicillium funiculosum IMI 114933. In words: Minimum Inhibitory Concentration (MIC) against Penicillium funiculosum. It is filed as cell-based. Particulars: Fungi. As for the experimental part: as §1

As for `NCCCCCCNc1ccc2c3c(cccc13)C(=O)N(CCCCCCN)C2=O` [Marker 1, N-(6-aminohexyl)-4-(6-aminohexylamino)-1,8-naphthalimide], the melting point (commonly the temperature, or range, at which the solid turns liquid) lay within 113.6 to 114.9 °C. Also, the “MIC Ca” value in data set [1] is 999. Further, the “antimicrobial effect (MIC, in words)” value in data set [2] is listed as “little or no antimicrobial effect”. Also, in data set [3], the “MIC Bs” value was 500. Further, the “MIC K.pn” value in data set [4] is given as 999. Besides, the “MIC Ps.fl” value in [5] is 500. The “MIC Ec” value in data set [6] stood at 500. Moreover, the “MIC Psa” value in [7] is reported as 999. In addition, the “MIC Sa” value in [8] amounted to 32. Also, the “MIC Pp” value in data set [9] turned out to be 999.

The record behind these values is patent US6706855B1, “Antimicrobial polymer” (Avecia Limited, priority 1999, dated 2004).
